Article PMC6792352, “Limited Chemical Structural Diversity Found to Modulate Thyroid Hormone Receptor in the Tox21 Chemical Library” (Environmental Health Perspectives, 2019)
Where a name gives a salt, the structure may show the parent alone.

Experiment: in vitro
Conditions: rat, gh3-tre-luc cells, AC50 (uM) modified / 1000

Structure (SMILES)	CC50 at 24 h
COc1ccc2c3c1O[C@H]1C[C@@H](O)C=C[C@@]31CCN(C)C2 [Galanthamine]	> 50 µM
Oc1cc(O)c2c(c1)O[C@H](c1ccc(O)c(O)c1)[C@H](O)C2 [(-)-Epicatechin]	> 50 µM
CN1CCN(C2Cc3ccccc3Sc3ccc(Cl)cc32)CC1 (centres unmarked) [Octoclothepine maleate]	7.55 µM
CC(C)N(C(=O)COc1nnc(C(F)(F)F)s1)c1ccc(F)cc1 [Flufenacet]	> 90 µM
CCCCCCOC(=O)C(C)C [Hexyl isobutyrate]	> 90 µM
CCCCOCCOC(=O)COc1ccc(Cl)cc1Cl [2,4-D-Butotyl]	> 90 µM
CC(C)=CCC[C@H](C)CCO [(S)-(-)-beta-Citronellol]	> 90 µM
Cc1cnc(NC(=O)C2=C(O)c3ccccc3S(=O)(=O)N2C)s1 [Meloxicam]	> 90 µM
Cc1ccc(NC(N)=O)cc1 [p-Tolylurea]	> 90 µM
O=C(O)c1c2ccccc2cc2ccccc12 [9-Anthracenecarboxylic acid]	> 90 µM
NNC(N)=O [Semicarbazide hydrochloride]	> 90 µM
Cc1ccccc1OCC1CO1 (centres unmarked) [o-Cresyl glycidyl ether]	> 90 µM
CC1(C)Cc2cccc(N)c2O1 [2,2-Dimethyl-2,3-dihydro-1-benzofuran-7-amine]	> 90 µM
O=C(N[C@@H](c1ccccc1)[C@@H]1CCCCN1)c1cccc(C(F)(F)F)c1Cl [SSR504734]	19.9 µM
CCO/C=C1\N=C(c2ccccc2)OC1=O [Oxazolone]	64.5 µM
CN(C)CCc1c[nH]c2cccc(O)c12 [Psilocin]	> 90 µM
CCC(C)(CC)c1cc(NC(=O)c2c(OC)cccc2OC)on1 [Isoxaben]	> 90 µM
COc1ccc2c(c1OC)CN1CCc3cc4c(cc3[C@@H]1C2)OCO4 [Canadine]	> 20 µM
Cc1ncc(COP(=O)(O)O)c(CN)c1O [Pyridoxamine phosphate]	> 50 µM
COc1ccc(C(=O)Nc2ccccc2)cc1[N+](=O)[O-] [4-Methoxy-3-nitro-N-phenylbenzamide]	> 90 µM
Cc1ccccc1C(=O)Nc1cccc(OC(C)C)c1 [Mepronil]	> 90 µM
CCCCCCCCCCCCCCCCCC[N+](C)(C)Cc1ccccc1 [N,N-Dimethyl-N-benzyl-N-octadecylammonium chloride]	11.4 µM
Nc1c(Cl)cc([N+](=O)[O-])cc1Cl [Dicloran]	> 90 µM
CCCCCCOC(=O)c1ccccc1O [Hexyl salicylate]	> 90 µM

Structure (SMILES)	CC50 at 24 h
CCOc1ccc(OCC)c(Cl)c1 [2-Chloro-1,4-diethoxybenzene]	> 90 µM
OCCOCCO [Diethylene glycol]	> 90 µM
O=C(O)CNC(=O)c1ccc(CO)o1 [5-(Hydroxymethyl-2-furoyl)glycine]	> 90 µM
c1cc2ccc3ccc4ccc5cccc6c(c1)c2c3c4c56 [Benzo(g,h,i)perylene]	> 4 µM
NS(=O)(=O)c1cc(C2(O)NC(=O)c3ccccc32)ccc1Cl (centres unmarked) [Chlorthalidone]	> 20 µM
CCCC[P+](CCCC)(CCCC)CCCC [Tetrabutylphosphonium bromide]	> 90 µM
CCCN(CCC)S(=O)(=O)c1ccc(C(=O)O)cc1 [Probenecid]	> 90 µM
c1ccc(CN(CC2=NCCN2)c2ccccc2)cc1 [Antazoline hydrochloride]	21.1 µM
Cc1ccc(N)cc1Cl [3-Chloro-4-methylaniline]	> 90 µM
COc1ccc(C2CNC(=O)C2)cc1OC1CCCC1 (centres unmarked) [Rolipram]	> 20 µM
CC(NN)c1ccccc1 (centres unmarked) [Mebanazine]	> 50 µM
COc1cc(C=O)ccc1O [4-Hydroxy-3-methoxybenzaldehyde]	> 50 µM
CN(C)CCCCl [Dimethylaminopropyl chloride hydrochloride]	> 100 µM
CCc1ccc(C(=O)NN(C(=O)c2cc(C)cc(C)c2)C(C)(C)C)cc1 [Tebufenozide]	2.75 µM
OCCCC1CCCCC1 [3-Cyclohexylpropan-1-ol]	> 90 µM
CS(=O)(=O)Nc1cc2occ(NC=O)c(=O)c2cc1Oc1ccccc1 [Iguratimod]	> 50 µM
O=C(c1ccc(F)cc1)C1CCN(CCn2c(=S)[nH]c3ccccc3c2=O)CC1 [Altanserin hydrochloride]	> 50 µM
CC(C)(C)C(=O)C(=O)O [3,3-Dimethyl-2-oxobutyric acid]	> 90 µM
CCOc1ccc(/N=C(\C)Nc2ccc(OCC)cc2)cc1 [Phenacaine]	> 50 µM
O=C(Nc1ccc(Cl)c(Cl)c1)C1CC1 [Cypromid]	> 50 µM
O=C1OC[C@@H](Cc2cccc(O)c2)[C@@H]1Cc1cccc(O)c1 [Enterolactone]	> 30 µM
CCCCCCCCC(CO)CCCCCC (centres unmarked) [2-Hexyl-1-decanol]	> 90 µM
Cc1ccc(CO)cc1 [4-Methylbenzyl alcohol]	> 90 µM
C=C(C)C(=O)OCCN(CC)CC [2-(Diethylamino)ethyl methacrylate]	> 90 µM

Structure (SMILES)	CC50 at 24 h
CC(C[N+](C)(C)C)OC(N)=O (centres unmarked) [Bethanechol]	> 50 µM
Cc1cc(Cl)ccc1N [4-Chloro-2-methylaniline hydrochloride]	> 90 µM
C=C(C)C1CC=C(C)C(=O)C1 (racemic) [dl-Carvone]	> 90 µM
Oc1ccc(Sc2ccc(O)cc2)cc1 [4,4'-Thiodiphenol]	47.9 µM
CCc1nc(C)c[nH]1 [2-Ethyl-4-methyl-1H-imidazole]	> 90 µM
O=C(O)CCC/C=C\C[C@H]1[C@H](/C=C/[C@H](O)COc2cccc(Cl)c2)[C@@H](O)C[C@H]1O [Cloprostenol sodium]	> 50 µM
N#Cc1ccccc1 [Benzonitrile]	> 90 µM
C=CCOCC(O)CCl (centres unmarked) [Allyl 3-chloro-2-hydroxypropyl ether]	> 90 µM
C[N+](C)(CCOc1ccccc1)Cc1cccs1 [Dimethyl(2-phenoxyethyl)-2-thenylammonium iodide]	> 50 µM
NCc1cccc(CN)c1 [1,3-Benzenedimethanamine]	> 90 µM
C[C@@H]1C(=O)C[C@H]2[C@]3(C)CC[C@@]2([C@H](C)C(=O)O)C(=O)[C@H]13 [Santonic acid]	> 50 µM
CN1C(=O)/C(=N\NC(N)=S)c2ccccc21 [Methisazone]	34.2 µM
O=C(NNCNNC(=O)c1ccncc1)c1ccncc1 [Metazide]	> 50 µM
CC(C)C[C@H](NC(=O)[C@@H](COC(C)(C)C)NC(=O)[C@H](Cc1ccc(O)cc1)NC(=O)[C@H](CO)NC(=O)[C@H](Cc1c[nH]c2ccccc12)NC(=O)[C@H](Cc1cnc[nH]1)NC(=O)[C@@H]1CCC(=O)N1)C(=O)N[C@@H](CCCNC(=N)N)C(=O)N1CCC[C@H]1C(=O)NNC(N)=O [Goserelin acetate]	> 50 µM
C[N+](C)(C)Cc1ccccc1 [Benzyltrimethylammonium chloride]	> 90 µM
O=C(Cl)c1ccccc1 [Benzoyl chloride]	> 90 µM
O=[N+]([O-])/C=C/c1ccccc1 [(E)-beta-Nitrostyrene]	13.7 µM
CC(=O)N[C@@H](CCC(N)=O)C(=O)O [Nalpha-Acetyl-L-glutamine]	> 50 µM
O=C(O)c1c(Cl)ccc2cc(Cl)cnc12 [Quinclorac]	> 90 µM
CCOC(=O)Nc1ccc(NCc2ccc(F)cc2)nc1N [Flupirtine maleate]	> 50 µM
Cc1cc(NC(=O)C(=O)O)cc(C)c1Oc1ccc(O)c2c1CCC2 [CP-634384]	> 90 µM
CC(=O)SCC(CC(=O)c1ccc(C)cc1)C(=O)O (centres unmarked) [Esonarimod]	> 50 µM

Same assay, conditions: rat, gh3-tre-luc cells, AC50 (uM) modified / 1000, Tox21_110001=Tox21_111859; viability, 1 nM T3 present, 24 h

Structure (SMILES)	CC50 at 24 h
O=C1CCCCC1CN1CCCCC1 (centres unmarked) [Pimeclone]	> 50 µM

Same assay, conditions: rat, gh3-tre-luc cells, AC50 (uM) modified / 1000, Tox21_110001=Tox21_200573; viability, 1 nM T3 present, 24 h

Structure (SMILES)	CC50 at 24 h
CC(C)(C#N)C(C)(C)C#N [Tetramethylsuccinonitrile]	> 90 µM

Same assay, conditions: rat, gh3-tre-luc cells, AC50 (uM) modified / 1000, Tox21_110001=Tox21_201490; viability, 1 nM T3 present, 24 h

Structure (SMILES)	CC50 at 24 h
CC(C)(O)C#N [2-Hydroxy-2-methylpropanenitrile]	> 100 µM

Same assay, conditions: rat, gh3-tre-luc cells, AC50 (uM) modified / 1000, Tox21_110001=Tox21_201663; viability, 1 nM T3 present, 24 h

Structure (SMILES)	CC50 at 24 h
CN(C)N=O [N-Nitrosodimethylamine]	> 90 µM

Same assay, conditions: rat, gh3-tre-luc cells, AC50 (uM) modified / 1000, Tox21_110001=Tox21_201726; viability, 1 nM T3 present, 24 h

Structure (SMILES)	CC50 at 24 h
ClCCBr [1-Chloro-2-bromoethane]	> 90 µM

Same assay, conditions: rat, gh3-tre-luc cells, AC50 (uM) modified / 1000, Tox21_110001=Tox21_202199; viability, 1 nM T3 present, 24 h

Structure (SMILES)	CC50 at 24 h
CN(C)NC(=O)CCC(=O)O [Daminozide]	> 90 µM

Same assay, conditions: rat, gh3-tre-luc cells, AC50 (uM) modified / 1000, Tox21_110001=Tox21_202359; viability, 1 nM T3 present, 24 h

Structure (SMILES)	CC50 at 24 h
Nc1ccc(-c2ccc(N)cc2)cc1 [Benzidine]	> 90 µM

Same assay, conditions: rat, gh3-tre-luc cells, AC50 (uM) modified / 1000, Tox21_110001=Tox21_202936; viability, 1 nM T3 present, 24 h

Structure (SMILES)	CC50 at 24 h
CCOC(=O)C(Cl)C(C)=O (centres unmarked) [Ethyl 2-chloroacetoacetate]	> 90 µM

Same assay, conditions: rat, gh3-tre-luc cells, AC50 (uM) modified / 1000, Tox21_110001=Tox21_300863; viability, 1 nM T3 present, 24 h

Structure (SMILES)	CC50 at 24 h
CCNP(=S)(OC)O/C(C)=C/C(=O)OC(C)C (centres unmarked) [Propetamphos]	> 90 µM

Same assay, conditions: rat, gh3-tre-luc cells, AC50 (uM) modified / 1000, Tox21_110001=Tox21_301964; viability, 1 nM T3 present, 24 h

Structure (SMILES)	CC50 at 24 h
CON(C)C(=O)Nc1ccc(Br)cc1 [Metobromuron]	> 90 µM

Same assay, conditions: rat, gh3-tre-luc cells, AC50 (uM) modified / 1000, Tox21_110001=Tox21_302063; viability, 1 nM T3 present, 24 h

Structure (SMILES)	CC50 at 24 h
CCOC(=O)CC(=O)CCl [Ethyl 4-chloro-3-oxobutanoate]	76.9 µM

Same assay, conditions: rat, gh3-tre-luc cells, AC50 (uM) modified / 1000, Tox21_110001=Tox21_302509; viability, 1 nM T3 present, 24 h

Structure (SMILES)	CC50 at 24 h
NC(=O)O [Ammonium carbamate]	> 90 µM

Same assay, conditions: rat, gh3-tre-luc cells, AC50 (uM) modified / 1000, Tox21_110001=Tox21_303256; viability, 1 nM T3 present, 24 h

Structure (SMILES)	CC50 at 24 h
CC(C)(O)C#N [2-Hydroxy-2-methylpropanenitrile]	> 90 µM
